Measurements published in patent US10793522B2, “Sulfonamides as inhibitors of the uptake of extracellular citrate” (Boehringer Ingelheim International GmbH, priority 2016, dated 2020).

Biological target: hSLC13A5 (Homo sapiens, UniProt Q86YT5)
Experiment: HepG2/14C-citrate uptake assay
Assay type: cell-based
Set-up: HepG2 cells endogenously express hSLC13A5 transporter which is responsible for the uptake of citrate into these cells; endogenous in cells; host or cells: HepG2
Conditions: HepG2 cells endogenously expressing hSLC13A5; Cytostar-T; 14C-citrate ~1.8 μM; incubation over night
Source text: (4) HepG2/^14C-Citrate Uptake Assay
HepG2 cells endogenously expressing hSLC13A5 were obtained from the Wistar Institute (Knowles et al., Science 1980, 209, 497-499).
HepG2 cells endogenously express hSLC13A5 transporter which is responsible for the uptake of citrate into these cells. […] The uptake of ^14C-citrate into HepG2 cells is monitored using the Cytostar-T assay. This assay format is based on the imported radioactive citrate brought into proximity with the scintillant contained within the base of the plate by virtue of the biological processes within the cells. The radioactive decay is converted to a light signal based on the integration of the scintillation matrix into the assay plate.
Method: ^14C-Citrate Uptake Assay
Starting from 10 mM stock solutions in 100% DMSO, compounds are diluted in pure DMSO using the appropriate dilution steps. Prior to the uptake assay, 400 μL assay medium+4.8 μL compound solution (or pure DMSO for non-inhibited control wells) are mixed (final DMSO concentration in the assay: 1% (v/v)) ^14C-citrate working solution (volumes required per 96-well):
The HepG2 cells are cultivated in cell culture medium (EMEM+10% fetal calf serum+1×NEAA and 10 mM L-Glutamin) For the assay, the medium of the confluent cultures is discarded and the cells are washed with DPBS w/o Mg^2+ w/o Ca^2+. The cells are detached by the addition of 1.0 mL 2× Trypsin in DPBS w/o Mg^2+ w/o Ca^2+ with 7.5 mM EDTA per 75 cm^2 culture flask for up to 3 minutes at 37° C. and resuspended in 10 mL cell culture medium. Following cell counting, 100,000 cells/well are seeded in a volume of 200 μL into Cytostar-T Scintillating 96-well microplates. After overnight incubation in a humid cell culture incubator at 37° C., 5% CO2, the cell culture medium is carefully aspirated and the cells are incubated with 200 μL prewarmed (37° C.) assay medium (50% DMEM+50% Ham's F-12+15 mM HEPES (pH 7.4) (medium contains 15.5 m M D(+)-glucose) per well for at least 1 h prior to the experiment.
Immediately prior to uptake assay, the assay medium is carefully removed and 100 μL test compound dilution is added to each well (n=3).
Following a 20 min incubation at 37° C. in the cell culture incubator, 20 μL of ^14C-citrate working solution is added to each well (final volume per well: 120 μL; final ^14C-citrate concentration ˜1.8 μM/well)).
After incubation over night at 37° C. in the cell culture incubator, the plates are sealed on the top using a transparent plastic foil and on the bottom using a white plastic foil. Following the sealing, the plate is placed into the TopCount NXT HTS and the signal is recorded.
The IC50 values of the compounds are calculated in IDBS XLfit by sigmoidal dose-response (variable slope).

Chain of hSLC13A5 (Q86YT5 whole entry): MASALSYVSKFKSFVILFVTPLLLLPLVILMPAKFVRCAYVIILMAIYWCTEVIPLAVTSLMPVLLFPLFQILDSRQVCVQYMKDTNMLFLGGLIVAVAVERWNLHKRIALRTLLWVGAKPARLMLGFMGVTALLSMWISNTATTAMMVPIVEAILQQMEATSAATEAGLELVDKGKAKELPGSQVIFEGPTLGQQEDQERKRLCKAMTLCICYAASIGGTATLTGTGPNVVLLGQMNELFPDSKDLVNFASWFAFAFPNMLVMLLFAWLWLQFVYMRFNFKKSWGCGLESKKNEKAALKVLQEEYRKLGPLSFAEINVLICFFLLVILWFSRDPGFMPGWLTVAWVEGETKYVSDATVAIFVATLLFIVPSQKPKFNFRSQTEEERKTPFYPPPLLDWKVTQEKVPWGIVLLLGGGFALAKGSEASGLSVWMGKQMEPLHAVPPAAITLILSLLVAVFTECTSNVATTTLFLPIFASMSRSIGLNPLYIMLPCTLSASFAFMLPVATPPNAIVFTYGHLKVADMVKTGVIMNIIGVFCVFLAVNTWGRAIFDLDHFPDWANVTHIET

Compound	IC50
Cc1cc(Br)cc(S(=O)(=O)N2CCC(C(=O)NCc3ccccn3)CC2)c1 [(I-61)]	149 nM
O=C(NCc1ccccn1)C1CCN(S(=O)(=O)c2cc(Cl)cc(Cl)c2)CC1 [(I-11)]	455 nM
O=C(NCc1ccc(F)cc1)C1CCN(S(=O)(=O)c2cc(Cl)cc(Cl)c2)CC1 [(I-10)]	24 nM
Cc1ccc(CNC(=O)C2CCN(S(=O)(=O)c3cc(Cl)cc(Cl)c3)CC2)nc1 [(I-15)]	152 nM
CCOc1cc(Cl)cc(S(=O)(=O)N2CCC(C(=O)NCc3nccs3)CC2)c1 [(I-49)]	100 nM
N#Cc1ccc(CNC(=O)C2CCN(S(=O)(=O)c3cc(Cl)cc(Cl)c3)CC2)cc1 [Example (I-1)]	74 nM
O=C(NCc1ccccc1F)C1CCN(S(=O)(=O)c2cc(Cl)cc(Cl)c2)CC1 [(I-2)]	35 nM
O=C(NCc1ccc(Cl)cc1)C1CCN(S(=O)(=O)c2cc(Cl)cc(Cl)c2)CC1 [(I-5)]	22 nM
O=C(NCc1ccc(F)cn1)C1CCN(S(=O)(=O)c2cc(Cl)cc(Cl)c2)CC1 [(I-20)]	233 nM
Cc1cnc(CNC(=O)C2CCN(S(=O)(=O)c3cc(Cl)cc(Cl)c3)CC2)s1 [(I-27)]	113 nM
